ChEMBL document CHEMBL1201862, “PubChem BioAssay data set” (2004)
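48-hour exposure; five concentrations; linearly interpolated endpoints. The concentration for 50% growth inhibition is given as GI50.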 The source made the active and inactive calls. Cut-off read from the data, not from the text of the source: active = GI50 up to about 1.1 µM and inactive = higher.

What was measured:
Assay in all cases: NCI tumour cell line growth inhibition, 48 h
KM12 = test system: KM12
Hs-578T = test system: Hs-578T
ACHN = test system: ACHN
NCI/ADR-RES = test system: NCI/ADR-RES
SF-539 = test system: SF-539
OVCAR-8 = test system: OVCAR-8
OVCAR-4 = test system: OVCAR-4
SW-620 = test system: SW-620
BT-549 = test system: BT-549
SR = test system: SR
NCI-H460 = test system: NCI-H460
RPMI-8226 = test system: RPMI-8226
HCT-15 = test system: HCT-15
A498 = test system: A498
U-251 = test system: U-251
TK-10 = test system: TK-10
DU-145 = test system: DU-145
CAKI-1 = test system: CAKI-1
Malme-3M = test system: Malme-3M

Compound | GI50 (KM12) | GI50 (Hs-578T) | GI50 (ACHN) | GI50 (NCI/ADR-RES) | GI50 (SF-539) | GI50 (OVCAR-8) | GI50 (OVCAR-4) | GI50 (SW-620) | GI50 (BT-549) | GI50 (SR) | GI50 (NCI-H460) | GI50 (RPMI-8226) | GI50 (HCT-15) | GI50 (A498) | GI50 (U-251) | GI50 (TK-10) | GI50 (DU-145) | GI50 (CAKI-1) | GI50 (Malme-3M)
N#Cc1c(NCCc2ccc(F)cc2)c2ccccc2n2c1nc1ccccc12 | 23.2 µM (inactive) | 4.33 µM (inactive) | 9.18 µM (inactive) | 12.3 µM (inactive) | 9.27 µM (inactive) | 5.68 µM (inactive) | 2.45 µM (inactive) | 75 µM (inactive) | 21.2 µM (inactive) | > 100 µM (inactive) | 16.5 µM (inactive) | 46.8 µM (inactive) | 28.4 µM | 21 µM (inactive) | 11.3 µM (inactive) | 12.5 µM (inactive) | 19.6 µM (inactive) | 9.84 µM (inactive) | 
Oc1ccc(Cl)cc1C1=NC(/N=C\c2ccccc2)=NC(c2ccccc2)C1 (centres undefined) | 10.5 µM (inactive) | > 100 µM (inactive) |  | 21.4 µM (inactive) | 22.8 µM (inactive) | 20 µM (inactive) |  | > 100 µM (inactive) | > 100 µM (inactive) | 5.5 µM (inactive) |  |  |  | 73.6 µM (inactive) | 30.1 µM (inactive) | > 100 µM (inactive) | > 100 µM (inactive) | 4.3 µM (inactive) | 
O=C1/C(=C/c2cccc([N+](=O)[O-])c2)N=C(c2ccccc2)N1c1nc2c(Cl)cc(Cl)cc2s1 | 19.9 µM (inactive) | 35.8 µM (inactive) | 27.7 µM (inactive) | 28.4 µM (inactive) | 22.8 µM (inactive) | 22 µM (inactive) | 24 µM (inactive) | 25.5 µM (inactive) | 30.5 µM (inactive) | 16.8 µM (inactive) | 27.5 µM (inactive) | 31.2 µM (inactive) | 29.3 µM | 18.7 µM (inactive) | 17.8 µM (inactive) | 45.2 µM (inactive) | 27 µM (inactive) | 40.7 µM (inactive) | 
COc1ccc2c(O)c3[n+](cc2c1OC)CCc1cc2c(cc1-3)OCO2 | 66.1 µM (inactive) | > 100 µM (inactive) | > 100 µM (inactive) | > 100 µM (inactive) | > 100 µM (inactive) | > 100 µM (inactive) | > 100 µM (inactive) | 45.5 µM (inactive) | 72.4 µM (inactive) | 39.3 µM (inactive) | 79.4 µM (inactive) | 84.3 µM (inactive) | 84.3 µM | 61.5 µM (inactive) | > 100 µM (inactive) | > 100 µM (inactive) | > 100 µM (inactive) | > 100 µM (inactive) | 
C/C=C(/C)C(=O)O[C@H]1[C@H]2[C@@H]([C@@H](OC(C)=O)[C@H](C)C(=O)[C@@]34C[C@@H](C)C(=O)[C@]3(/C=C(\C)[C@H]1OC(C)=O)O4)C2(C)C | 5.58 µM (inactive) | 5.64 µM (inactive) | 3.8 µM (inactive) | 4.12 µM (inactive) | 3.1 µM (inactive) | 3.48 µM (inactive) | 4.9 µM (inactive) | 3.39 µM (inactive) | 2.84 µM (inactive) | 2.54 µM (inactive) | 1.31 µM (inactive) | 3.35 µM (inactive) | 3 µM | 4.75 µM (inactive) | 5.7 µM (inactive) | 3.45 µM (inactive) | 1.66 µM (inactive) | 4.42 µM (inactive) | 
c1ccc2c(c1)CC1c3[nH]c4ccccc4c3CCN21 (centres undefined) | > 10 µM (inactive) | > 10 µM (inactive) | > 10 µM (inactive) | > 10 µM (inactive) | > 10 µM (inactive) | > 10 µM (inactive) | > 10 µM (inactive) | > 10 µM (inactive) | > 10 µM (inactive) | > 10 µM (inactive) | > 10 µM (inactive) | > 10 µM (inactive) | > 10 µM |  | > 10 µM (inactive) | > 10 µM (inactive) | > 10 µM (inactive) | > 10 µM (inactive) | > 10 µM (inactive)
O=C1NN=C2C=C(c3ccc(Cl)cc3)CC(c3cccc(Br)c3)C12 (centres undefined) | > 100 µM (inactive) | 19.1 µM (inactive) | 33.7 µM (inactive) | > 100 µM (inactive) | > 100 µM (inactive) | > 100 µM (inactive) | > 100 µM (inactive) | 81.8 µM (inactive) | > 100 µM (inactive) | 38.3 µM (inactive) | 40 µM (inactive) | 26.1 µM (inactive) | 19.3 µM |  | 59.2 µM (inactive) | 54.5 µM (inactive) | 41.8 µM (inactive) | 23.4 µM (inactive) | > 100 µM (inactive)
O=c1oc2ccc([N+](=O)[O-])cc2c(Nc2ccc3c(c2)Oc2ccccc2O3)c1[N+](=O)[O-] | 31.9 µM (inactive) | 44.3 µM (inactive) | 32.2 µM (inactive) | 29.9 µM (inactive) | 25.4 µM (inactive) | 26.8 µM (inactive) | 42 µM (inactive) |  | 30.4 µM (inactive) | 31 µM (inactive) | 30 µM (inactive) | 23.3 µM (inactive) | 31.1 µM |  | 18.9 µM (inactive) | 37.3 µM (inactive) | 59.7 µM (inactive) | 28.8 µM (inactive) | 69.8 µM (inactive)
COc1ccc(/C=N/NS(=O)(=O)c2ccc(/C=C3\NC(=O)N(C)C3=O)cc2)cc1 | > 100 µM (inactive) | 30.3 µM (inactive) | > 100 µM (inactive) | > 100 µM (inactive) |  | 56.2 µM (inactive) | 43.9 µM (inactive) | > 100 µM (inactive) | > 100 µM (inactive) | > 100 µM (inactive) | 37.5 µM (inactive) | > 100 µM (inactive) | > 100 µM | 70.6 µM (inactive) | > 100 µM (inactive) | 49.3 µM (inactive) | > 100 µM (inactive) | > 100 µM (inactive) | > 100 µM (inactive)
Cc1ccc(-c2nc3cc(F)c(N4CCN(C)CC4)cc3[nH]2)cc1 | 14 µM (inactive) | 10.7 µM (inactive) | 21.1 µM (inactive) | 28.8 µM (inactive) |  |  | 17.1 µM (inactive) | 37.1 µM (inactive) | 22.1 µM (inactive) | 32.6 µM (inactive) | 16.9 µM (inactive) | 33.6 µM (inactive) | 6.32 µM | 32.7 µM (inactive) | 29.5 µM (inactive) | 22.2 µM (inactive) | 31.1 µM (inactive) | 32.1 µM (inactive) | 15.3 µM (inactive)
O=C(NC(=S)Nc1ccc(Br)cc1)c1ccc2c(c1)Sc1ccccc1O2 | > 100 µM (inactive) | 45.7 µM (inactive) | 60.1 µM (inactive) | > 100 µM (inactive) | > 100 µM (inactive) | 50.1 µM (inactive) |  | > 100 µM (inactive) | > 100 µM (inactive) | 36.6 µM (inactive) | > 100 µM (inactive) |  | > 100 µM | 27.4 µM (inactive) | 37 µM (inactive) | 29.4 µM (inactive) | > 100 µM (inactive) |  | > 100 µM (inactive)
Cc1cc(-c2nc3c(F)cccc3s2)ccc1N | 38.9 µM (inactive) | 98.6 µM (inactive) | 30 µM (inactive) | > 100 µM (inactive) |  | > 100 µM (inactive) |  | > 100 µM (inactive) | 66.1 µM (inactive) | 48 µM (inactive) |  | 26.9 µM (inactive) | 84.9 µM | 8.2 µM (inactive) | 69.2 µM (inactive) |  | 52.4 µM (inactive) | 50.4 µM (inactive) | 28.8 µM (inactive)
